# Patent publication US20210106581A1, “Treatment Of Liver Diseases” (Melior Pharmaceuticals I, Inc., priority 2018, published 2021)
# “Also recorded” adds a separate entry of the source.
# Tests used:
# Type in all cases: in vivo
# [1] = test system: male C57BL/6NCrl mice on modified high fat diet (mHFD); experiment: Extended mHFD NASH mouse study, 8-week treatment (Example 2)
# Source text: The modified high fat diet (mHFD) was obtained from Research Diets, Inc. (New Brunswick, N.J.) and was formulated according to Cong et al., supra. The mHFD contained 60% fat, 14% protein, and 26% carbohydrate, with total energy content of 21.0 kJ/g. The mHFD contained a low concentration of choline bicitrate a (0.6 g/kg) and DL-methionine (1.5 g/kg). Fatty acid composition of the fats (mainly from lard) in mHFD was 36% saturated fatty acids, 45% monounsaturated fatty acids, and 19% polyunsaturated fatty acids (PUFA).
# Male C57BL/6NCrl mice were obtained from Charles River Laboratories (Wilmington, Mass.). Mice were maintained in microisolator cages, in groups of no more than 4 animals per cage, and on a 12-hour light cycle. Food and water were provided ad libitum. On the last day of the study, all mice were sacrificed by cervical dislocation after a 4-hour food deprivation. Livers were rapidly dissected and part of each liver was cut and fixed in formaldehyde saline (4%) solution for histological analysis. The rest of the liver was snap frozen in liquid nitrogen, and stored at −70° C. until use.
# Mice were acquired at 3-4 weeks of age (body weight of about 11-12 g). Mice were fed a standard chow (Control group) or mHFD (Model group) for 22 weeks. […] At week-22, based on body weight consideration, the mHFD-fed mice were screened and distributed in a balanced fashion into 3 groups for the compound treatment study (Table 1).
# During the 8-week drug treatment phase, all animals (except for standard-chow controls) remain on the mHFD diet. During the treatment period, the summary of measurement schedule is as below: • 1) Body weight (BW) was taken once a week. • 2) Terminal blood and whole Liver were collected. • 3) Hepatic histology (NAS score) was assessed.
# Livers were removed at necropsy and fixed in 10% buffered formalin. Sections were processed to paraffin by routine histological methods and 4 μm sections were stained with hematoxylin and eosin. Sections were evaluated under light microscopy by a board-certified veterinary pathologist for identification of proliferative lesions as well as severity scoring of lesions associated with steatohepatitis. The pathologist was blinded to the treatment status. Steatohepatitis parameters were scored and classified according to a standardized histological scoring system for NASH described by Kleiner et al., Hepatology, 2005, 41, 1313-1321. In brief, individual livers were evaluated for steatosis, lobular inflammation, and ballooning degeneration of hepatocytes, and given a score of (03) for steatosis and inflammation, and (02) for ballooning degeneration, using previously defined criteria (see below). An NAFLD activity score (NAS) was obtained by summing the individual parameter scores.
# Steatosis Location: 0: Predominantly zone 3 (centrilobular); 1: Predominantly zone 1 (periportal); 2: Azonal (defined as when the pattern could not be fit into one of the other categories or marked architectural change); and 3: Panacinar (defined as involving all zones of the liver equally).
# Inflammation: 0: No foci; 1: <2 foci per 200× field; 2: 2-4 foci/200× field; and 3: >4 foci/200× field.
# Ballooning Degeneration: 0: None; 1: Few balloon cells; and 2: Many cells/prominent ballooning.
# Data are expressed as the average±SEM at each week and analyzed by Unpaired T-tests as applicable using Prism® software (GraphPad Software, Inc., Las Jolla, Calif.). A p-value of less than 0.05 indicates a significant difference between treatment groups.
# [2] = test system: male BALB/c mice with CCl4-induced liver fibrosis; experiment: CCl4-induced liver fibrosis mouse model (Example 3)
# Experimental: In the following study, 6 to 7 week old male BALB/c mice (25-30 g) were randomized based on body weight after 7-day of CCl4 injections (3 times). Mice were fed standard rodent chow and water ad libitum. The mice were divided into 4 groups, with 12 mice per group. The mice were administered a dose volume of 10 mL/kg (MLR-1023), 2.5 mL/kg (CCl4), each in a formulation of 20% HBPCD/saline and corn oil intraperitoneally (i.p.). The dose level of MLR-1023 was 30 and 100 mg per kg, and the dose level of CCl4 was 5%. The dose frequency of MLR-1023 was once daily (QD), and the dose frequency of CCl4 was 3 times a week (Monday, Wednesday, and Friday). The study duration was 28 days, with MLR-1023 treatment started from day 8 to day 28. CCl4 was obtained from Sigma-Aldrich (St. Louis, Mo.). A commercial kit was used for analyzing liver hydroxyproline content (BioVision, Inc.; Milpitas, Calif.). ALT and AST kits were purchased from BIOO Science (Austin, Tex.). All other reagents used in the study were of analytical grade. Male BALB/c mice were obtained from Charles River Laboratories (Wilmington, Mass.). On the last day of the study all mice were sacrificed by cervical dislocation. Blood/serum samples were collected for the assays of liver enzymes (ALT and AST). Livers were rapidly dissected and part of each liver was cut and fixed in formaldehyde saline (4%) solution for histological analysis; the remainder of the liver was snap frozen in liquid nitrogen, and stored at −70° C. until use. Starting on Day 1, animals were administered i.p. with 5% CCl4 or corn oil (vehicle for CCl4 solution) three days per week (Monday, Wednesday, and Friday) for 4 weeks. CCl4 was formulated as a […] with the dose volume of 2.5 mL/kg, and was freshly formulated on a weekly basis. Animals were weighed weekly. Test compounds and vehicle administrations were performed from Day 8 to Day 28. At the end of study, blood was drawn through retro-orbital punctures for serum collection. The whole liver was removed. One lobe was placed in a tube containing 10% formalin for histopathology, the remainder of the liver lobes were collected and snap frozen for further hydroxyproline assay. Homogenized liver samples were evaluated for hydroxyproline content to assess hepatic collagen levels. Serum was separated by centrifugation at 4° C. and analyzed immediately or stored at −70° C. Serum ALT and AST levels were determined by colorimetric method and using procedures described by the kit manufacturers. Hepatic hydroxyproline content was measured by colorimetric method and expressed as μg/mg wet liver weight. Livers were removed at necropsy and fixed in 10% buffered formalin. Sections of liver were processed routinely, sectioned at approximately 4 microns, and stained with hematoxylin and eosin (H&E) or picrosirius red (PSR). Glass slides were evaluated using light microscopy by a board-certified veterinary/toxicology pathologist in a blind manner. Two sections from each animal were examined. Five animals from each group were randomly chosen for histology analysis. The severity of histologic findings was scored using the Society of Toxicologic Pathology best practices (1=minimal, 2=mild, 3=moderate, 4=marked, 5=Severe). Fibrosis value is corresponding to the fraction of centrilobular areas affected by fibrosis (1=about <10%, 2=about 11-30%, 3=about […], 4=about […], 5=about 71-100%). Liver fibrosis is characterized by increased numbers of fibroblasts and collagen fibers in liver sinusoids that partially, or completely, bridged centrilobular areas. PSR staining severity generally correlated with the mean severity of fibrosis. Overall increased collagen deposition and bridging fibrosis are identified with PSR stain. […]
# [3] = test system: male C57BL/6 mice on modified high fat diet (mHFD); experiment: Modified high fat diet (mHFD) mouse model, serum and liver triglycerides (Example 1); conditions: 30 mg/kg or 100 mg/kg i.p. once daily, 8 weeks
# Experimental: The animal model was performed essentially as described in Cong et al., Life Sciences, 2008, 82, 983-990. Briefly, male C57BL/6 mice at 6 weeks of age were fed, ad libitum, a modified high fat diet (mHFD) provided by Research Diets, and described in Cong et al. One group of control animals (n=11) remained on standard diet. All animals remained on their respective diets for 23 weeks (29 weeks of age). At that time, animals continued to remain on their respective diets and treatment regimens began. The group of animals on standard diet and one group of animals on mHFD (n=9) received vehicle administered by intraperitoneal injection, once daily. Two additional groups of animals on mHFD (n=8) received Compound 102 administration by intraperitoneal injection, once daily at either 30 mg/kg or 100 mg/kg. Compound 102 was formulated in, and the vehicle used was, 20% hydroxypropyl beta cyclodextrin (HPBCD). Treatment regimen continued for an additional 8 weeks while the animals remained on their respective diets. At the end of 8 weeks of treatment, animals were fasted for 6 hours. […] Serum triglycerides and liver triglyceride were measured from the respective samples using Triglyceride assay kit (Wako Diagnostics, Richmond, Va.; Cat No 461-8992). Data were averaged and are expressed as the average SEM. Data were analyzed by two-way repeated measures ANOVA followed by a Dunnett's post hoc test. […]
# [4] = both treatments (30 and 100 mpk), H&E, FIG. 11
smiles,measurement,setting,value
"Cc1cccc(Oc2cnc(=O)[nH]c2)c1 [MLR-1023, tolimidone]",NAFLD activity score (NAS),"[1]; 30 mpk (30 mg/kg) IP, vs MD-vehicle, FIG. 6",significantly reduced
same,body weight,"[1]; 30 mpk IP, 8-week treatment, vs MD-vehicle, FIG. 3",significantly reduced
same,liver weight,"[1]; 30 mpk IP, 8-week treatment, vs MD-vehicle, FIG. 4",significantly reduced
same,TG content in liver,"[1]; 30 mpk IP, vs MD-vehicle, FIG. 2",significantly reduced
same,body weight,"[1]; 100 mpk IP, 8-week treatment, vs MD-vehicle, FIG. 3",trend in reduction (p=0.056)
same,liver weight,"[1]; 100 mpk IP, 8-week treatment, vs MD-vehicle, FIG. 4",significantly reduced
same,hepatocellular ballooning,"[1]; 100 mpk, FIG. 7",significantly reduced
same,body weight,"[1]; FIG. 3 legend, dose not stated",significantly reduced
same,liver weight,"[1]; FIG. 4 legend, dose not stated",significantly reduced
same,hepatocellular ballooning (histology),"[1]; dose not stated, FIGS. 7, 8A, 8B",reduced amount
same,steatosis (histology),"[1]; dose not stated, FIGS. 8A, 8B",reduced
same,CCl4-induced collagen deposition,"[2]; 100 mg per kg, 21-day treatment",significantly reduced
same,fibrosis percentage,"[2]; 100 mg per kg, 21-day treatment, PSR",reduced
same,scores of hepatic inflammation,"[2]; 100 mg per kg, H&E, vs CCl4-vehicle, FIG. 12",reduced
same,"CCl4-induced increase of liver enzymes, especially AST","[2]; 21-day treatment, summary statement",mild improvement; also recorded: mild effects
same,serum AST levels,"[2]; 30 and 100 mg per kg i.p. QD day 8-28, vs CCl4-vehicle, dose-dependent manner, FIG. 9",trended towards improving
same,hepatic hydroxyproline levels,"[2]; 30 and 100 mg per kg i.p. QD day 8-28, vs CCl4-vehicle, dose-dependent manner, FIG. 10",significantly reduced
same,serum ALT levels,"[2]; 30 and 100 mg per kg i.p. QD day 8-28, vs CCl4-vehicle, FIG. 9",did not significantly affect
same,scores of hepatic necrosis/mineralization,"[2]; 30 and 100 mg per kg, H&E, vs CCl4-vehicle, FIG. 12",trended towards reducing; also recorded: reduced
same,inflammation (pathologist's general assessment),[2]; [4],still present
same,necrosis (pathologist's general assessment),[2]; [4],dose-related effect
same,fibrosis (pathologist's general assessment),"[2]; both treatments (30 and 100 mpk), PSR, FIG. 11",dose-related effect
same,circulating serum triglyceride levels,"[3]; 6 h fasted, FIG. 1",significantly reduced
same,accumulation of triglycerides in the liver,[3]; FIG. 2,significantly reduced
